Source: US10265329B2, “Altering steroid metabolism for treatment of steroid-dependent disease” (THE CLEVELAND CLINIC FOUNDATION, priority 2015, dated 2019)

Molecular target: T1, CYP17A1 (Homo sapiens, UniProt P05093)
T1 construct: expressed in transfected cells
T1 sequence (P05093 1-508): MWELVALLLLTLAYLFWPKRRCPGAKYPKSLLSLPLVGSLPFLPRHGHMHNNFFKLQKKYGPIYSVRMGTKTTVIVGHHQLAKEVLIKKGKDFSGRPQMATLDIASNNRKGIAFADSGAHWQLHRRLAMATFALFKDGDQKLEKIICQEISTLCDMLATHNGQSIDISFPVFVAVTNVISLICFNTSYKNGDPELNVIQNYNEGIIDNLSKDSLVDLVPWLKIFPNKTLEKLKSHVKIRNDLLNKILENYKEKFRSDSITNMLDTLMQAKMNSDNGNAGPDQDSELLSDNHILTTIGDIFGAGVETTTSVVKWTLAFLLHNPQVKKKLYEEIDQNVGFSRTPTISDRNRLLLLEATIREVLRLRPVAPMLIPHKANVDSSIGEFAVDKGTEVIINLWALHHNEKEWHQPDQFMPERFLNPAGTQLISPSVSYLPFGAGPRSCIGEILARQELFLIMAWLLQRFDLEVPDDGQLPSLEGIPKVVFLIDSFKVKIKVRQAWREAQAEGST
Assay: Conversion of [3H]-pregnenolone to DHEA in 293 cells expressing CYP17A1
Format: cell-based
Conditions: for CYP17A1 inhibition activity relative to Abi and D4A: 293 cells overexpressing CYP17A1, [3H]-pregnenolone to DHEA
Source text: LNCaP and VCaP cells were purchased from the American Type Culture Collection (Manassas, Va.) and maintained in RPMI-1640 with 10% FBS. LAPC4 cells were kindly provided by Dr. Charles Sawyers (Memorial Sloan Kettering Cancer Center, New York, N.Y.) and grown in Iscove's Modified Dulbecco's Medium with 10% FBS. C4-2 cells were kindly provided by Dr. Leland Chung (Cedars-Sinai Medical Center, Los Angeles, Calif.) and maintained in RPMI-1640 with 10% FBS. All experiments done with LNCaP and VCaP were done in plates coated with poly-DL-ornithine (Sigma-Aldrich, St. Louis, Mo.). A 293 cell line stably expressing human CYP17A1 was generated by transfection with plasmid pcDNA3-CYP17 (a generous gift of Dr. Walter Miller, University of California, San Francisco) and selection with G418. Cell lines was authenticated by DDC Medical (Fairfield, Ohio) and determined to be […] mycoplasma free with primers.
Cell Line Metabolism: Cells were seeded and incubated in 12-well plates with 0.2 million cells/well for ˜24 h and then incubated with a mixture of radioactive ([^3H]-labeled) and non-radioactive androgens (final concentration, 100 nM; ˜1,000,000 cpm/well; PerkinElmer, Waltham, Mass.) at 37° C. Aliquots of medium were collected at the indicated times. Collected medium was treated with 1,000 units of β-glucuronidase (Helix pomatia; Sigma-Aldrich) at 65° C. for 2 h, extracted with 860 μL ethyl acetate:isooctane (1:1), and concentrated under nitrogen gas. Xenograft Metabolism: 10^7 LNCaP or VCaP cells were injected subcutaneously with Matrigel into surgically orchiectomized NSG mice that were implanted with 5 mg 90-day sustained-release DHEA pellets (Innovative Research of American, Sarasota, Fla.). Xenografts were harvested when they reached 1000 mm^3, minced, and cultured in DMEM with 10% FBS at 37° C. with mixture of radioactive ([^3H]-labeled) and non-radioactive androgens, or Abi, when they reached 1000 mm^3. Each xenograft was analyzed in triplicate in at least three independent experiments. Aliquots of medium were collected at the indicated times. […]
Dried samples were reconstituted in 50% methanol and injected into the HPLC. […] Alternatively, dried samples were applied to plastic-backed silica gel plates and separated by thin-layer chromatography (TLC) using a mobile phase of 3:1 chloroform:ethyl acetate, followed by exposure of the plates to a phosphorimager screen and quantitated with a Storm model 860 phosphorimager (Applied Biosystems, Foster City, Calif.). […]
Cell lines, drugs and constructs. […] Cell lines were authenticated by DDC Medical (Fairfield, Ohio) and determined to be mycoplasma free with primers. […]

C[C@]12CC[C@@H](O)C[C@@H]1CC[C@@H]1[C@@H]2CC[C@]2(C)C(c3cccnc3)=CC[C@@H]12 [Compound 3α-OH-5α-Abi, 17-(3-pyridyl)-5α-androsta-16-ene-3α-ol]
CYP17A1 inhibition activity relative to Abi and D4A: attenuated

C[C@]12CCC(=O)C=C1CC[C@@H]1[C@@H]2CC[C@]2(C)C(c3cccnc3)=CC[C@@H]12 [Compound D4A, 17-(3-Pyridyl)androsta-4,16-dien-3-one]
% conversion to DHEA (1 nM drug, 3 h incubation, vehicle 70.1%): 4.2%

C[C@]12CCC(=O)C[C@@H]1CC[C@@H]1[C@@H]2CC[C@]2(C)C(c3cccnc3)=CC[C@@H]12 [Compound 5α-Abi, 17-(3-pyridyl)-5α-androsta-16-ene-3-one]
CYP17A1 inhibition activity relative to Abi and D4A: attenuated
